Test results as given in US20030220346A1 (priority 2003, published 2003).

Assays:
[1] = biological target: T1, D3 (Homo sapiens, UniProt P35462); assay: dopaminergic receptor binding, D3; conditions: result in words
T1 construct: expressed in transfected cells
Experimental: (§1) As known in the art, human monoamine GPCR binding profiles were obtained using heterologously expressed cloned human GPCRs in the binding experiments. Both pKi and IC50 (nM concentration) values were obtained as well as an average value of each from at least three determinations.
(§2) Dopaminergic receptors D2A, D2B, D3, and D4 were also tested.

[2] = plasma levels of 3-OH gepirone after administration of gepirone; format: in vivo; conditions: human subjects administered a dose of gepirone; FIG. 2; result in words
Experimental: “Time (H)” represents time after administration.
Each sample corresponds to a 0.5 ml plasma sample, extracted with 6 ml of (2:1) (v/v) hexane:chloroform for 1 hour. After separation by centrifuge, the organic layer is transferred to a 10 ml conical tube and 90 ul of 1% formic acid is added. The tube is vortexed for 10 minutes and centrifuged for 5 minutes. About 80 ul of the formic acid layer is transferred into injection vials for HPLC/MS analysis.

[3] = biological target: T2, 5-HT1A receptor (Homo sapiens, UniProt P08908); assay: human monoamine GPCR binding profile, 5-HT1A; conditions: at least about 30 fold to over 1500 fold lower IC50
T2 construct: expressed in transfected cells
T2 sequence (P08908 1-422): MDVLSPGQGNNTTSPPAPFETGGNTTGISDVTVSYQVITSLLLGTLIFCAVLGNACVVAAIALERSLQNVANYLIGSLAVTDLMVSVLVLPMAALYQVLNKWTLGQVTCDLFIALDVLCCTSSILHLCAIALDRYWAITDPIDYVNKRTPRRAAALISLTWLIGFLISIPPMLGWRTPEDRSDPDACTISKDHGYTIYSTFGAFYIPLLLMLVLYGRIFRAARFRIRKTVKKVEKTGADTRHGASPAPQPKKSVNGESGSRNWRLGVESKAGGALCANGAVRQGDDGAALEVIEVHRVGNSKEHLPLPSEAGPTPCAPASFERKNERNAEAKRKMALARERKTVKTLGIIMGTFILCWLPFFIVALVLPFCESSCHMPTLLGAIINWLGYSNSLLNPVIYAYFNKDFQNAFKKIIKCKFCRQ
Description: as §1

[4] = biological target: T3, D2A (Homo sapiens, UniProt P14416); assay: dopaminergic receptor binding, D2A; conditions: result in words
T3 construct: expressed in transfected cells
T3 sequence (P14416 whole entry): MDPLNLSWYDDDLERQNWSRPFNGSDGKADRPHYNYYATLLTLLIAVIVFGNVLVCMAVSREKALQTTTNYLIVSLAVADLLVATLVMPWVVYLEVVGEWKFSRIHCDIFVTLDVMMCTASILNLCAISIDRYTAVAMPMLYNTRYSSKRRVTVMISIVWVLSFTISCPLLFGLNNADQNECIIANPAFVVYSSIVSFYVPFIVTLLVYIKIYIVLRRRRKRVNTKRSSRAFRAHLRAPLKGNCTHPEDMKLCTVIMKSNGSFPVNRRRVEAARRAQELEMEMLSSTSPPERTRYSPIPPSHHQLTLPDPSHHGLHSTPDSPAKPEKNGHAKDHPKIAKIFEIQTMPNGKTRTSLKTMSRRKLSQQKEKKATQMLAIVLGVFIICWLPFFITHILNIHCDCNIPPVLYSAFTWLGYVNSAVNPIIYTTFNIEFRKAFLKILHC
Experimental: as §1, §2

[5] = biological target: T4, Alpha 2A (Homo sapiens, UniProt P08913); assay: alpha-adrenergic receptor binding, Alpha 2A; conditions: result in words
T4 construct: expressed in transfected cells
T4 sequence (P08913 1-465): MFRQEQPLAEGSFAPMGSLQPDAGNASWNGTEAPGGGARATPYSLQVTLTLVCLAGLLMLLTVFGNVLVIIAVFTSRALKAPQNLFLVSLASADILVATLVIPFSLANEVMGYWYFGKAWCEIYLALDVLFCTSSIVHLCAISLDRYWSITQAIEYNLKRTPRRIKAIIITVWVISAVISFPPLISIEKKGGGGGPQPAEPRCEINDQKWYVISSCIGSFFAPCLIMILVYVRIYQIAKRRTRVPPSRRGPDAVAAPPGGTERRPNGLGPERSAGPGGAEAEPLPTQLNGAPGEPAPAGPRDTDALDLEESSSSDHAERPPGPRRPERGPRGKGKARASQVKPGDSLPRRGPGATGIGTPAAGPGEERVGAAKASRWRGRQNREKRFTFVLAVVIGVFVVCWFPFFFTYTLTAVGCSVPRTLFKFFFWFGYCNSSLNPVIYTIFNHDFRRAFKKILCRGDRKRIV
Experimental: as §1, §2

[6] = biological target: T5, Alpha 2B (Homo sapiens, UniProt P18089); assay: alpha-adrenergic receptor binding, Alpha 2B; conditions: result in words
T5 construct: expressed in transfected cells
T5 sequence (P18089 1-450): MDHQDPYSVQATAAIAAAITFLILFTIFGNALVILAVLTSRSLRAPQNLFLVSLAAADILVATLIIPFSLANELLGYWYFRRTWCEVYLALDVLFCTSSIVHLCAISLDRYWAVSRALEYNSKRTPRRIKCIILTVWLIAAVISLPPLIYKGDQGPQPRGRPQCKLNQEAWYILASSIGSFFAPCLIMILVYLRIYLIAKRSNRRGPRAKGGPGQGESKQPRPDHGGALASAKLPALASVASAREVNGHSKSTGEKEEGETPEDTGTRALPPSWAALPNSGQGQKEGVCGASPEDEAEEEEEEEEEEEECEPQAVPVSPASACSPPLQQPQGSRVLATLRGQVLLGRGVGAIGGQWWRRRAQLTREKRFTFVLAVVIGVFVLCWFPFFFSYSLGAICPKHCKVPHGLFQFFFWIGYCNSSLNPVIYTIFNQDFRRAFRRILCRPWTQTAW
Experimental: as §1, §2

[7] = biological target: T6, D2B (Homo sapiens, UniProt P14416); assay: dopaminergic receptor binding, D2B; conditions: result in words
T6 construct: expressed in transfected cells
T6 sequence (P14416 1-414 isoform P14416-2): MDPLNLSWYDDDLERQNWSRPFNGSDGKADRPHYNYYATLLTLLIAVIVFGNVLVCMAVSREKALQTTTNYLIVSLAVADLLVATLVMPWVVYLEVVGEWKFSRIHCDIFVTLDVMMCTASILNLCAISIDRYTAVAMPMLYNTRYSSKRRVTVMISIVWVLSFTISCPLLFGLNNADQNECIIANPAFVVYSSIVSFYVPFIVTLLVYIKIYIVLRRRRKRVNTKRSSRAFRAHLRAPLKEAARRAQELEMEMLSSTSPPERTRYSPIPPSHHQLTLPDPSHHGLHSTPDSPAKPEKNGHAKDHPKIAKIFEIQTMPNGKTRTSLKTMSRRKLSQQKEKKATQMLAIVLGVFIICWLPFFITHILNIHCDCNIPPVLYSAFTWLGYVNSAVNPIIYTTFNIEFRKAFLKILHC
Experimental: as §1, §2

[8] = biological target: T7, Alpha 2C receptor (Homo sapiens, UniProt P18825); assay: alpha-adrenergic receptor binding, Alpha 2C; conditions: result in words
T7 construct: expressed in transfected cells
T7 sequence (P18825 1-462): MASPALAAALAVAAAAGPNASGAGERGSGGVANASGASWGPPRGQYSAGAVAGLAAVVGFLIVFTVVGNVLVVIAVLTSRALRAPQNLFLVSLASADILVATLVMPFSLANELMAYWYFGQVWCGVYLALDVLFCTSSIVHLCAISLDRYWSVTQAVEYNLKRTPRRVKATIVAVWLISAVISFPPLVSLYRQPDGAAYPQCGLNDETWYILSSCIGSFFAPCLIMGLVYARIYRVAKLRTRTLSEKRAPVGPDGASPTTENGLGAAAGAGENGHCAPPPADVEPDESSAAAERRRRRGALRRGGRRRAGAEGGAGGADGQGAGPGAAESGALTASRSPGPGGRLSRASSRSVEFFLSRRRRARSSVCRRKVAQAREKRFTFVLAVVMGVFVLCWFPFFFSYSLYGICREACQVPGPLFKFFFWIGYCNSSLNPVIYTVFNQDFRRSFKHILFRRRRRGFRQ
Experimental: as §1, §2

[9] = cited from earlier work; for half-life: result in words

T1 sequence (P35462 whole entry): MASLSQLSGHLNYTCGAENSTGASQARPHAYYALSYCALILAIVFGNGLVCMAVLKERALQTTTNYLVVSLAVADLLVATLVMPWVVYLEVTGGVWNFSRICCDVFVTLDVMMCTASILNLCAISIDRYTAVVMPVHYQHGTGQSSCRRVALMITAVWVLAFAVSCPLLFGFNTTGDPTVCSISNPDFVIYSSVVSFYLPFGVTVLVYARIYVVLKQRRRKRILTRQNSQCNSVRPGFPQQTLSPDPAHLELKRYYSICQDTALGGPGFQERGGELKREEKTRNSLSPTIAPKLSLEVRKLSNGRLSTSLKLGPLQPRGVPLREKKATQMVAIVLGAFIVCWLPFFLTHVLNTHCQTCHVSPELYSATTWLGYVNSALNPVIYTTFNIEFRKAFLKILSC

SMILES | dopaminergic binding at D3 [1] | plasma levels of 3-OH gepirone [2] | selectivity for the 5-HT1A receptor compared to the 5-HT2, 5-HT6, and 5-HT7 receptors (fold lower IC50) [3] | dopaminergic binding at D2A [4] | affinity at Alpha 2A [5] | affinity at Alpha 2B [6] | dopaminergic binding at D2B [7] | binding at the Alpha 2C receptor [8] | half-life [9] | bioavailability ([9]; delivered orally)
CC1(C)CC(=O)N(CCCCN2CCN(c3ncccn3)CC2)C(=O)C1O (centres unmarked) [3-OH gepirone, 4,4-Dimethyl-3-hydroxy-1-[4-[4-(2-pyrimidinyl)-1-piperazinyl]butyl]-2,6-piperidinedione] | insignificant | available quickly and persists in the plasma for extended periods of time | at least 30 fold | insignificant | did not display significant affinity | did not display significant affinity | insignificant | weak binding | – | –
O=C1CC2(CCCC2)CC(=O)N1CCCCN1CCN(c2ncccn2)CC1 [buspirone] | – | – | – | – | – | – | – | – | very short | –
CC1(C)CC(=O)N(CCCCN2CCN(c3ncccn3)CC2)C(=O)C1 [gepirone, 4-dimethyl-1-[4-[4-(2-pyrimidinyl)-1-piperazinyl]butyl]-2,6-piperidinedione] | – | – | – | – | – | – | – | – | very short | 14-18%
